This note sets out measurements from the NIST ThermoML archive (doi:10.1016/j.tca.2017.07.015).

Series [1] can be described thus: Molar enthalpy of transition or fusion. The conditions noted are these: Crystal; DSC.
The conditions of series [2]: Crystal; DTA.

Numbers after ± are expanded uncertainties.

Consider `ON=Cc1ccccc1` [benzaldehyde oxime], for which the “Molar enthalpy of transition or fusion” value in series [1] was determined as 3.39 ± 0.335 kcal/mol. The Normal melting temperature in series [2] stood at 29.70 ± 0.5 °C.
